Experimental data: patent US12458630B2, “Combination therapy for cancer” (The Regents of the University of California, priority 2020, dated 2025)
Entries after “also recorded” stand apart in the source; their conditions may differ.

Tested on: parental and IKKα KO MIA PaCa-2 tumors
Experiment: Heterotopic s.c. xenografts in nude mice
Type: in vivo, mouse
Experimental: To evaluate the effects of MP on tumor growth in the autochthonous model, Kras^G12D;Ikkα^Δpan mice, at 4 weeks of age, were treated with vehicle or 10 mg/kg EIPA (Sigma) by intraperitoneal injection every other day for 1 month. After that, surgically removed pancreata were weighed and used for further analysis. To evaluate the effects of MP on heterotopic xenografts, female homozygous BALB/c Nu/Nu nude mice were injected subcutaneously (s.c.) in both flanks at 7 weeks of age with 10^6 parental and IKKα KO MIA PaCa-2 cells mixed at a 1:1 dilution with BD Matrigel (BD Biosciences) in a total volume of 100 μl. Mice were treated with EIPA (7.5 mg/kg) for 15 days when tumors attained an average volume of 50-100 mm^3. As a control, animals treated with vehicle (DMSO in PBS) were used. Volumes (1/2×(width^2×length)) of s.c. tumors were calculated on the basis of measurements using digital calipers after 15 days of treatment. […] Tumor volumes were calculated as above.
In some embodiments, to evaluate the effects of MP on tumor growth or survival in the autochthonous model, Kras^G12D;Ikkα^ΔPEC mice, at 4 weeks of age, were treated with vehicle or 10 mg/kg EIPA (Sigma) by i.p. injection every other day for 1 month. […] Volumes (1/2×(width^2×length)) of s.c. tumors were calculated on the basis of measurements using digital calipers after 15 days of treatment. […] Tumor volumes were calculated as above.

Which results are given for `CCN(c1nc(N)c(C(=O)N=C(N)N)nc1Cl)C(C)C` [EIPA, 5-(N-ethyl-N-isopropyl) amiloride]?
growth of IKKα-deficient tumors / their EIPA sensitivity vs parental (IKKα KO (IKKα^Δ) MIA PaCa-2 tumors, EIPA 7.5 mg/kg for 15 days): strongly inhibited; also recorded: more EIPA sensitive; tumor size (parental and IKKα KO MIA PaCa-2 tumors, EIPA 7.5 mg/kg for 15 days vs vehicle): reduced tumor size in both groups; also recorded: significantly suppressed
